Data: patent US5288709A, “Erythromycin derivatives” (priority 1991, dated 1994)
Values after ≈ are worked out from the molar mass of the structure shown. Like-named read-outs stand apart in the source and are kept apart here.

Columns and labels:
Assay in all cases: In-vitro antimicrobial activity primary screen (agar dilution MIC)
Format in all cases: cell-based
[1] = system: Staphylococcus aureus CMX 503A; details: Staphylococcus aureus, CMX503A, 24 h, BHI agar, 20-24 h, read-out: MIC
Description: (§1) The antimicrobial spectra of several of the compounds of the present invention were tested as described below.
(§2) Twelve petri dishes containing successive aqueous dilutions of the test compounds, mixed with 10 mL of sterilized Brain Heart Infusion (BHI) agar (Difco 0418-01-5), were prepared. Each plate was inoculated with 1:100 (or 1:10 for slow growing strains (primarily Micrococcus and Streptococcus) dilutions of up to 32 different microorganisms, using a Steers replicator block. The inoculated plates were incubated at 35 37° C. for 20-24 hours. In addition, a control plate, using BHI agar containing no test compound, was prepared and incubated at the beginning and the end of each test.
(§3) An additional plate containing a compound having known susceptibility patterns for the organisms being tested and belonging to the same antibiotic class as the test compounds was also prepared and incubated as a further control, as well as to provide test-to test comparability. Erythromycin A was used for this purpose.
(§4) After incubation, each plate was read. The MIC (minimum inhibitory concentration) is defined as the lowest concentration of test compound yielding no growth, a slight haze, or sparsely isolated colonies on the inoculum spot as compared to the growth control containing no test compound.

[2] = system: Staphylococcus aureus CMX 686B; details: CMX686B, BHI agar, 20-24 h, read-out: MIC
Description: as §1, §2, §3, §4

[3] = system: Staphylococcus aureus CMX 553; details: Staphylococcus aureus, CMX553, 24 h, BHI agar, 20-24 h, read-out: MIC
Description: as §1, §2, §3, §4

[4] = system: Escherichia coli SS; details: BHI agar, 20-24 h
Description: as §1, §2
(§5) An additional plate containing a compound having known susceptibility patterns for the organisms being tested and belonging to the same antibiotic class as the test compounds was also prepared and incubated as a further control, as well as to provide test-to test comparability.
as §4

[5] = system: Escherichia coli H560
Description: as §1, §2, §5, §4

[6] = system: Streptococcus pyrogenes 2548 INDUC; details: Streptococcus, 2548INDUC, 24 h, BHI agar, 20-24 h
Description: as §1, §2, §5, §4

[7] = system: Escherichia coli JUHL
Description: as §1, §2, §5, §4

[8] = system: Enterococcus faecium ATCC 8043
Description: as §1, §2, §5, §4

[9] = system: Klebsiella pneumoniae ATCC 8045
Description: as §1, §2, §5, §4

[10] = system: Streptococcus bovis A5169; details: Streptococcus equinus, BHI agar, 20-24 h
Description: as §1, §2, §5, §4

[11] = system: Micrococcus luteus ATCC 9341; details: ATCC9341, BHI agar, 20-24 h, read-out: MIC
Description: as §1, §2, §5, §4

[12] = system: Streptococcus pyrogenes EES61; details: BHI agar, 20-24 h, read-out: MIC
Description: as §1, §2, §5, §4

[13] = system: Pseudomonas cepacia 2961; details: BHI agar, 20-24 h
Description: as §1, §2, §5, §4

[14] = system: Enterobacter aerogenes ATCC 13048; details: Klebsiella aerogenes
Description: as §1, §2, §5, §4

[15] = system: Staphylococcus epidermidis 3519; details: Staphylococcus epidermidis, 3519, 24 h, BHI agar, 20-24 h
Description: as §1, §2, §5, §4

[16] = system: Acinetobacter SP CMX 669
Description: as §1, §2, §5, §4

[17] = system: Staphylococcus aureus 45; details: BHI agar, 20-24 h
Description: as §1, §2, §5, §4

[18] = system: Micrococcus luteus ATCC 4698; details: Micrococcus luteus, ATCC4698, 24 h, BHI agar, 20-24 h
Description: as §1, §2, §5, §4

[19] = system: Pseudomonas aeruginosa K799/61; details: Pseudomonas aeruginosa, K799/61, 24 h, Pseudomonas aeruginosa K799/61; BHI agar, 20-24 h
Description: as §1, §2, §5, §4

[20] = system: Staphylococcus aureus 45 RAR2; details: Staphylococcus aureus, 45RAR2, 24 h, BHI agar, 20-24 h
Description: as §1, §2, §5, §4

[21] = system: Escherichia coli DC-2
Description: as §1, §2, §5, §4

[22] = system: Providencia stuartii CMX 640
Description: as §1, §2, §5, §4

[23] = system: Staphylococcus aureus ATCC 6538P; details: Staphylococcus aureus, ATCC6538P, 24 h, BHI agar, 20-24 h
Description: as §1, §2, §5, §4

[24] = system: Staphylococcus aureus A5177; details: Staphylococcus aureus A5177, BHI agar, 20-24 h
Description: as §1, §2, §5, §4

[25] = system: Pseudomonas aeruginosa A5007
Description: as §1, §2, §5, §4

[26] = system: Pseudomonas aeruginosa K799/WT
Description: as §1, §2, §5, §4

[27] = system: Streptococcus agalactiae CMX 508; details: 20-24 h
Description: as §1, §2, §5, §4

[28] = system: Pseudomonas aeruginosa BMH10; details: BHI agar, 20-24 h
Description: as §1, §2, §5, §4

## CC[C@H]1OC(=O)[C@H](C)[C@@H](O[C@H]2C[C@@](C)(OC)[C@H](NS(C)(=O)=O)[C@H](C)O2)[C@H](C)[C@@H](O[C@@H]2O[C@H](C)C[C@H](N(C)C)[C@H]2O)[C@](C)(O)C[C@@H](C)[C@@H]2O[C@@]1(C)C(=O)[C@H]2C [Example 11, (4"R,9S)-9-Deoxo-4",11,12-trideoxy-9,12-epoxy-4"-[(methylsulphonyl)amino]-11-oxoerythromycin A]
[1]
  MIC: 0.39 µg/mL (≈ 0.492 µM)
[2]
  MIC: 0.39 µg/mL (≈ 0.492 µM)
[3]
  MIC: 0.2 µg/mL (≈ 0.252 µM)
[4]; Escherichia coli, 24 h
  MIC: 0.78 µg/mL (≈ 0.984 µM)
[5]; Escherichia coli H560, BHI agar, 20-24 h, read-out: MIC
  MIC: > 100 µg/mL
[6]
  MIC: 0.78 µg/mL (≈ 0.984 µM)
[7]; Escherichia coli JUHL, BHI agar, 20-24 h, read-out: MIC
  MIC: > 100 µg/mL
[8]; ATCC8043, Enterococcus faecium ATCC 8043, BHI agar, 20-24 h, read-out: MIC
  MIC: 0.05 µg/mL (≈ 0.063 µM)
[9]; ATCC8045, Klebsiella pneumoniae ATCC 8045, BHI agar, 20-24 h, read-out: MIC
  MIC: > 100 µg/mL
[10]; read-out: MIC
  MIC: < 0.005 µg/mL
[11]
  MIC: 0.05 µg/mL (≈ 0.063 µM)
[12]
  MIC: < 0.005 µg/mL
[13]; Burkholderia cepacia, read-out: MIC
  MIC: > 100 µg/mL
[14]; ATCC13048, Enterobacter aerogenes ATCC 13048, BHI agar, 20-24 h, read-out: MIC
  MIC: > 100 µg/mL
[15]
  MIC: 0.78 µg/mL (≈ 0.984 µM)
[16]; SPCMX669, Acinetobacter SP CMX 669, BHI agar, 20-24 h, read-out: MIC
  MIC: 50 µg/mL (≈ 63 µM)
[17]; Staphylococcus aureus, 45, 24 h
  MIC: 0.39 µg/mL (≈ 0.492 µM)
[18]
  MIC: 0.1 µg/mL (≈ 0.126 µM)
[19]
  MIC: 3.1 µg/mL (≈ 3.91 µM)
[20]
  MIC: 0.39 µg/mL (≈ 0.492 µM)
[21]; DC2, Escherichia coli DC-2, BHI agar, 20-24 h, read-out: MIC
  MIC: > 100 µg/mL
[22]; CMX640, Providencia stuartii CMX 640, BHI agar, 20-24 h, read-out: MIC
  MIC: > 100 µg/mL
[23]
  MIC: 0.39 µg/mL (≈ 0.492 µM)
[24]; Staphylococcus aureus, A5177, 24 h
  MIC: 0.39 µg/mL (≈ 0.492 µM)
[25]; Pseudomonas aeruginosa A5007, BHI agar, 20-24 h, read-out: MIC
  MIC: > 100 µg/mL
[26]; Pseudomonas aeruginosa K799/WT, BHI agar, 20-24 h, read-out: MIC
  MIC: 100 µg/mL (≈ 126 µM)
[27]; CMX508, BHI agar, read-out: MIC
  MIC: 0.02 µg/mL (≈ 0.0252 µM)
[28]; read-out: MIC
  MIC: > 100 µg/mL

## CC[C@H]1OC(=O)[C@H](C)[C@@H](O[C@H]2C[C@@](C)(OC)[C@H](NCc3ccccc3)[C@H](C)O2)[C@H](C)[C@@H](O[C@@H]2O[C@H](C)C[C@H](N(C)C)[C@H]2O)[C@](C)(O)C[C@@H](C)[C@@H]2O[C@@]1(C)C(=O)[C@H]2C [Example 12, (4"R,9S)-9-Deoxo-4", 11,12-trideoxy-9,12-epoxy-11-oxo-4"-[(phenylmethyl)amino]erythromycin A]
[1]
  MIC: 0.39 µg/mL (≈ 0.484 µM)
[2]
  MIC: 0.39 µg/mL (≈ 0.484 µM)
[3]
  MIC: 0.2 µg/mL (≈ 0.248 µM)
[4]; read-out: MIC
  MIC: 3.1 µg/mL (≈ 3.85 µM)
[5]; Escherichia coli, H560, 24 h
  MIC: > 100 µg/mL
[6]
  MIC: 3.1 µg/mL (≈ 3.85 µM)
[7]; Escherichia coli, 24 h
  MIC: > 100 µg/mL
[8]; Enterococcus faecium, ATCC8043, 24 h
  MIC: 0.2 µg/mL (≈ 0.248 µM)
[9]; Klebsiella pneumoniae, ATCC8045, 24 h
  MIC: > 100 µg/mL
[10]; A5169, 24 h
  MIC: 0.05 µg/mL (≈ 0.0621 µM)
[11]
  MIC: 0.05 µg/mL (≈ 0.0621 µM)
[12]
  MIC: 0.1 µg/mL (≈ 0.124 µM)
[13]; Burkholderia cepacia, 2961, 24 h
  MIC: > 100 µg/mL
[14]; ATCC13048, 24 h
  MIC: > 100 µg/mL
[15]
  MIC: 0.39 µg/mL (≈ 0.484 µM)
[16]; Acinetobacter, SPCMX669, 24 h
  MIC: > 100 µg/mL
[17]; read-out: MIC
  MIC: 0.2 µg/mL (≈ 0.248 µM)
[18]
  MIC: 0.39 µg/mL (≈ 0.484 µM)
[19]
  MIC: 3.1 µg/mL (≈ 3.85 µM)
[20]
  MIC: 0.39 µg/mL (≈ 0.484 µM)
[21]; Escherichia coli, DC2, 24 h
  MIC: > 100 µg/mL
[22]; Providencia stuartii, CMX640, 24 h
  MIC: > 100 µg/mL
[23]
  MIC: 0.39 µg/mL (≈ 0.484 µM)
[24]; read-out: MIC
  MIC: 0.39 µg/mL (≈ 0.484 µM)
[25]; Pseudomonas aeruginosa, A5007, 24 h
  MIC: > 100 µg/mL
[26]; Pseudomonas aeruginosa, K799/WT, 24 h
  MIC: 100 µg/mL (≈ 124 µM)
[27]; Streptococcus agalactiae, CMX508, 24 h, BHI agar
  MIC: 0.1 µg/mL (≈ 0.124 µM)
[28]; Pseudomonas aeruginosa, BMH10, 24 h
  MIC: > 100 µg/mL
